Measurements published in patent US9487489B2, “Halogen-substituted pyrazole derivatives as pest-control agents” (BAYER CROPSCIENCE AKTIENGESELLSCHAFT, priority 2013, dated 2016).

What was measured:
[1] = system: Tick nymphs (Amblyomma hebraeum); assay: Amblyomma hebraeum test (AMBYHE), tick nymphs immersed; assay type: in vivo; details: application rate 100 ppm; immersed one minute; after 42 days
Description: A. Amblyomma hebaraeum Test (AMBYHE)
Solvent: dimethyl sulphoxide
To produce a suitable preparation of active compound, 10 mg of active compound are mixed with 0.5 ml of dimethyl sulfoxide, and the concentrate is diluted with water to the desired concentration.
Tick nymphs (Amblyomma hebraeum) are placed into perforated plastic beakers and immersed in the desired concentration for one minute. The ticks are transferred on filter paper into a Petri dish and stored in a climate-controlled cabinet.
After 42 days, the kill in % is determined. 100% means that all of the ticks have been killed; 0% means that none of the ticks have been killed.

[2] = system: cattle ticks (Boophilus microplus) Parkhurst strain, SP-resistant; assay: Boophilus microplus dip test (BOOPMI Dip); assay type: in vivo; details: application rate 100 ppm, assessed after 7 days
Outline: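 Adult engorged female SP-resistant Parkhurst ticks (8–10) were fully immersed in compound diluted in water from a DMSO solution, then kept in a climate-controlled room. After 7 days, fertile egg-laying was scored, with larval hatching checked at about 42 days; 100% efficacy means no fertile eggs.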

[3] = system: engorged adult female cattle ticks (Boophilus microplus); assay: Boophilus microplus injection test (BOOPMI Inj); assay type: in vivo; details: application rate 20 μg/animal; injection into abdomen; assessed after 7 days
Outline: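 DMSO solution of compound (1 μl) injected into the abdomen of 5 engorged adult female ticks, which are then held in a climate-controlled room. After 7 days, efficacy is scored from laying of fertile eggs, with unclear eggs kept until larval hatch (~42 days); 100% means no fertile eggs, 0% all fertile.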

[4] = system: adult cat fleas (Ctenocephalides felis); assay: Ctenocephalides felis oral test (CTECFE); assay type: in vivo; details: application rate 100 ppm in citrated cattle blood; after 2 days
Outline: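 About 20 unfed adult cat fleas fed through parafilm membrane on citrated cattle blood containing compound (DMSO stock diluted in blood to test concentration). Kill % scored after 2 days (100% = all fleas dead).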

[5] = system: L1 larvae of the Australian sheep blowfly (Lucilia cuprina); assay: Lucilia cuprina test (LUCICU); assay type: in vivo; details: application rate 100 ppm; after 2 days
Outline: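 About 20 L1 larvae placed in a vessel with minced horsemeat plus compound (DMSO concentrate diluted with water to the desired concentration). Kill in % scored after 2 days, 100% meaning all larvae dead.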

[6] = system: adult houseflies (Musca domestica); assay: Musca domestica test (MUSCDO); assay type: in vivo; details: application rate 100 ppm; after 2 days
Outline: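 Compound dissolved in DMSO and diluted with water to the test concentration, applied with sugar solution on a sponge; 10 adult houseflies per vessel. Mortality scored after 2 days as % kill (100% all dead, 0% none).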

[7] = system: green peach aphid (Myzus persicae); assay: Myzus persicae spray test (MYZUPE); assay type: in vivo; details: Chinese cabbage leaf discs, after 6 days
Outline: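 Chinese cabbage leaf discs infested with all aphid stages sprayed with compound in acetone/DMF with alkylaryl polyglycol ether emulsifier in water. Efficacy (% aphids killed; 100% all dead, 0% none) scored after 6 days.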

[8] = system: larvae of the mustard beetle (Phaedon cochleariae); assay: Phaedon cochleariae spray test (PHAECO); assay type: in vivo; details: Chinese cabbage leaf discs, after 7 days
Outline: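 Compound dissolved in acetone/dimethylformamide with alkylaryl polyglycol ether emulsifier, made up in water containing 1000 ppm emulsifier, then diluted to test concentrations and sprayed against mustard beetle larvae. Efficacy (% larvae killed) scored after 7 days.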

[9] = system: caterpillars of the armyworm (Spodoptera frugiperda); assay: Spodoptera frugiperda spray test (SPODFR); assay type: in vivo; details: maize leaf discs, after 7 days
Outline: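 Maize leaf discs sprayed with compound in acetone/DMF with alkylaryl polyglycol ether emulsifier (1000 ppm) in water, dried, then infested with armyworm caterpillars. Mortality (%) scored after 7 days; 100% = all caterpillars killed, 0% = none killed.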

[10] = system: greenhouse red spider mite (Tetranychus urticae); assay: Tetranychus urticae spray test, OP-resistant (TETRUR); assay type: in vivo; details: bean leaf discs, after 6 days
Outline: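 Bean leaf discs carrying all stages of OP-resistant Tetranychus urticae were sprayed with compound formulated in acetone/dimethylformamide and diluted in water with 1000 ppm alkylaryl polyglycol ether emulsifier. Mortality (% efficacy, 100% = all mites killed) scored after 6 days.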

[11] = system: adult cat fleas (Ctenocephalides felis); assay: Ctenocephalides felis in vitro contact test with adult cat fleas (T1); details: after 48 h
Outline: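 Test compound was dissolved in acetone p.a. (9 mg per 1 ml) and diluted as needed. 250 μl was spread evenly over the inner walls and floor of a 25 ml test tube by rotating on an orbital shaker for 2 h at 30 rpm. Once the solvent evaporated, 5-10 adult Ctenocephalides felis were added. Tubes were capped with a perforated plastic lid and kept horizontal at room temperature and ambient humidity.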

[12] = system: adult dog ticks (Rhipicephalus sanguineus); assay: Rhipicephalus sanguineus in vitro contact test with adult brown dog ticks (T2); details: after 48 h
Outline: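 Acetone solutions coated onto test tube walls and floor, giving 5 μg/cm^2 at 900 ppm. Five to ten adult ticks held per tube in the dark at room temperature for 48 h, then heated at 45-50° C for up to 5 min; efficacy is the percentage of dead or moribund ticks unable to climb away.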

[13] = system: bont tick nymphs (Amblyomma hebraeum); details: after 48 h
[14] = system: adult castor bean ticks (Ixodes ricinus); assay: Ixodes ricinus in vitro contact test with adult castor bean ticks (T3); details: after 48 h
Description: T3. Ixodes ricinus-in vitro Contact Tests with Adult Castor Bean Ticks
For the coating of the test tubes, initially 9 mg of active compound are dissolved in 1 ml of acetone p.a. and then diluted with acetone p.a. to the desired concentration. By turning and rocking on an orbital shaker (2 h of rocking rotation at 30 rpm), 250 μl of the solution are distributed homogeneously on the internal walls and the floor of a 25 ml test tube. At 900 ppm active compound solution and 44.7 cm^2 internal surface, an area dose of 5 μg/cm^2 is achieved for homogeneous distribution.
After evaporation of the solvent, the tubes are populated with 5-10 adult castor bean ticks (Ixodes ricinus), sealed with a perforated plastic lid and incubated in a horizontal position in the dark at 22° C. and 90% humidity in a climate-controlled cabinet. After 48 h, the efficacy is determined. To this end, the ticks are knocked to the floor of the tube and incubated on a hotplate at 45-50° C. for at most 5 min. Ticks which remain motionless on the floor or move in an uncoordinated manner such that they are not able to deliberately avoid the heat by climbing upwards are considered to be dead or moribund.
An efficacy of 100% means that all ticks were dead or moribund. 0% efficacy means that none of the ticks had been damaged.

Structure (SMILES) | efficacy (kill in %) [1] [%] | efficacy (laying of fertile eggs) [2] [%] | efficacy (laying of fertile eggs) [3] [%] | efficacy (kill in %) [4] [%] | efficacy (kill in %) [5] [%] | efficacy (kill in %) [6] [%] | efficacy in % ([7]; application rate 500 g/ha) [%] | efficacy in % ([8]; application rate 500 g/ha) [%] | efficacy in % ([9]; application rate 500 g/ha) [%] | efficacy in % ([10]; application rate 500 g/ha) [%] | efficacy (dead or moribund fleas) ([11]; application rate 1 μg/cm^2) [%] | efficacy (dead or moribund fleas) ([11]; application rate 5 μg/cm^2) [%] | efficacy (dead or moribund ticks) ([12]; application rate 5 μg/cm^2) [%] | efficacy (dead or moribund ticks) ([12]; application rate 1 μg/cm^2) [%] | efficacy (dead or moribund ticks) [13] [%] | efficacy (dead or moribund ticks) ([14]; application rate 5 μg/cm^2) [%] | also measured
Cc1cc(-c2cnn(-c3c(C(F)(F)F)c(C(F)(F)C(F)(F)F)nn3C)c2)cc(C(=O)NC2(C#N)CC2)c1Cl [Ic-91] | 100 | 100 | 100 | 100 | 100 | 100 | 100 | 100 | 100 | 100 | 100 | 100 | 80 | – | – | – | –
Cn1nc(C(F)(F)C(F)(F)F)c(C(F)(F)F)c1-n1cc(-c2cc(C(=O)NC3CC3)c(F)cc2Cl)cn1 [Ic-49] | 100 | 100 | 100 | 100 | 100 | 100 | 90 | 100 | 100 | 90 | 100 | 100 | 100 | 100 | 100 | – | –
Cn1nc(C(F)(F)C(F)(F)F)c(C(F)(F)F)c1-n1cc(-c2cc(Cl)c(Cl)c(C(=O)NC3(C#N)CC3)c2)cn1 [Ic-95] | 100 | 100 | 100 | 100 | 100 | 100 | 90 | 100 | 100 | 100 | 100 | 100 | 100 | 100 | 100 | – | –
Cc1ncc(-c2cnn(-c3c(C(F)(F)F)c(C(F)(F)C(F)(F)F)nn3C)c2)cc1C(=O)NC1(C#N)CC1 [Ic-85] | 100 | 100 | 100 | 100 | 100 | 100 | 100 | 100 | 100 | 100 | 100 | 100 | 100 | 100 | – | – | –
Cn1nc(C(F)(F)C(F)(F)F)c(C(F)(F)F)c1-n1cc(-c2cc(F)c(F)c(C(=O)NC3(C#N)CC3)c2)cn1 [Ic-47] | 100 | 100 | 100 | 100 | 100 | 100 | 100 | 100 | 100 | – | 100 | 100 | 100 | 100 | 100 | 100 | –
Cc1cc(-c2cnn(-c3c(C(F)(F)F)c(C(F)(F)C(F)(F)F)nn3C)c2)cc(C(=O)NC2CC2)c1Cl [Ic-90] | – | 100 | 100 | 100 | 100 | 100 | 100 | 100 | 100 | 90 | 100 | 100 | 100 | 100 | 100 | 100 | efficacy (dead or moribund ticks) ([14]; application rate 1 μg/cm^2): 100%
Cn1nc(C(F)(F)C(F)(F)F)c(C(F)(F)F)c1-n1cc(-c2cnc(Cl)c(C(=O)NC3(C#N)CC3)c2)cn1 [Ic-83] | 100 | 100 | 100 | 100 | 100 | 100 | – | – | – | – | 100 | 100 | 100 | 100 | 100 | 100 | efficacy in % ([8]; application rate 100 g/ha): 100%; efficacy in % ([9]; application rate 100 g/ha): 100%; efficacy in % ([10]; application rate 100 g/ha): 100%
Cn1nc(C(F)(F)C(F)(F)F)c(C(F)(F)F)c1-n1cc(-c2cc(C(=O)NC3(C#N)CC3)c(F)cc2Cl)cn1 [Ic-48] | – | 80 | 100 | 100 | 100 | 100 | – | 100 | 100 | – | 100 | 100 | 100 | 100 | 100 | 100 | efficacy in % ([7]; application rate 100 g/ha): 90%; efficacy in % ([10]; application rate 100 g/ha): 90%; efficacy (dead or moribund ticks) ([14]; application rate 1 μg/cm^2): 80%
